Key:
Test in all cases: KinaseProfiler off-target kinase profiling
Format in all cases: biochemical
Settings in all cases: 10 μM, ATP near Km
[1] = molecular target: T1, MAPKAP-K3 (Homo sapiens, UniProt Q16644)
T1 construct: purchased Millipore, Inc. (KinaseProfiler service)
Procedure: (§1) A representative compound of the invention (Example 2) was tested for off-target kinase activity at a concentration of 10 μM by Millipore, Inc. in their KinaseProfiler™ service against all the kinases available in their full kinase panel. The compound was run in duplicate at a concentration of ATP near the Km for each individual kinase according to Millipore's specifications. The results are shown in Table B. Data are reported as percent of control (POC) and are the average of the two replicates.

[2] = molecular target: T2, Plk3 (Homo sapiens, UniProt Q9H4B4)
T2 construct: purchased Millipore, Inc. (KinaseProfiler service)
Procedure: as §1

[3] = molecular target: T3, DRAK1 (Homo sapiens, UniProt Q9UEE5)
T3 construct: purchased Millipore, Inc. (KinaseProfiler service)
Procedure: as §1

[4] = molecular target: T4, Fyn (Homo sapiens, UniProt P06241)
T4 construct: purchased Millipore, Inc. (KinaseProfiler service)
Procedure: as §1

[5] = molecular target: T5, CK1gamma1 (Homo sapiens, UniProt Q9HCP0)
T5 construct: purchased Millipore, Inc. (KinaseProfiler service)
Procedure: as §1

[6] = molecular target: T6, KDR (Homo sapiens, UniProt P35968)
T6 construct: purchased Millipore, Inc. (KinaseProfiler service)
Procedure: as §1

[7] = molecular target: T7, IRR (Homo sapiens, UniProt P14616)
T7 construct: purchased Millipore, Inc. (KinaseProfiler service)
Procedure: as §1

[8] = molecular target: T8, TLK2 (Homo sapiens, UniProt Q86UE8)
T8 construct: purchased Millipore, Inc. (KinaseProfiler service)
Procedure: as §1

[9] = molecular target: T9, ERK2 (Homo sapiens, UniProt P28482)
T9 construct: purchased Millipore, Inc. (KinaseProfiler service)
Procedure: as §1

[10] = molecular target: T10, NEK2 (Homo sapiens, UniProt P51955)
T10 construct: purchased Millipore, Inc. (KinaseProfiler service)
Procedure: as §1

[11] = molecular target: T11, JNK3 (Homo sapiens, UniProt P53779)
T11 construct: purchased Millipore, Inc. (KinaseProfiler service)
Procedure: as §1

[12] = molecular target: T12, TSSK2 (Homo sapiens, UniProt Q96PF2)
T12 construct: purchased Millipore, Inc. (KinaseProfiler service)
Procedure: as §1

[13] = molecular target: T13, Rsk2 (Homo sapiens, UniProt P51812)
T13 construct: purchased Millipore, Inc. (KinaseProfiler service)
Procedure: as §1

[14] = molecular target: T14, IR Activated (Homo sapiens, UniProt P06213)
T14 construct: purchased Millipore, Inc. (KinaseProfiler service)
Procedure: as §1

[15] = molecular target: T15, SGK3 (Homo sapiens, UniProt Q96BR1)
T15 construct: purchased Millipore, Inc. (KinaseProfiler service)
Procedure: as §1

[16] = molecular target: T16, MLK1 (Homo sapiens, UniProt P80192)
T16 construct: purchased Millipore, Inc. (KinaseProfiler service)
Procedure: as §1

[17] = molecular target: T17, Syk (Homo sapiens, UniProt P43405)
T17 construct: purchased Millipore, Inc. (KinaseProfiler service)
Procedure: as §1

[18] = molecular target: T18, MELK (Homo sapiens, UniProt Q14680)
T18 construct: purchased Millipore, Inc. (KinaseProfiler service)
Procedure: as §1

[19] = molecular target: T19, TAK1 (Homo sapiens, UniProt O43318)
T19 construct: purchased Millipore, Inc. (KinaseProfiler service)
Procedure: as §1

[20] = molecular target: T20, Tie2 (Homo sapiens, UniProt Q02763)
T20 construct: purchased Millipore, Inc. (KinaseProfiler service)
Procedure: as §1

[21] = molecular target: T21, ZAP-70 (Homo sapiens, UniProt P43403)
T21 construct: purchased Millipore, Inc. (KinaseProfiler service)
Procedure: as §1

[22] = molecular target: T22, CDK1/cyclinB (Homo sapiens, UniProt P06493)
T22 construct: purchased Millipore (KinaseProfiler service)
Procedure: as §1

[23] = molecular target: T23, Pim-3 (Homo sapiens, UniProt Q86V86)
T23 construct: purchased Millipore, Inc. (KinaseProfiler service)
Procedure: as §1

[24] = molecular target: T24, HIPK2 (Homo sapiens, UniProt Q9H2X6)
T24 construct: purchased Millipore, Inc. (KinaseProfiler service)
Procedure: as §1

[25] = molecular target: T25, ROCK-I (Homo sapiens, UniProt Q13464)
T25 construct: purchased Millipore, Inc. (KinaseProfiler service)
Procedure: as §1

[26] = molecular target: T26, EphA4 (Homo sapiens, UniProt P54764)
T26 construct: purchased Millipore, Inc. (KinaseProfiler service)
Procedure: as §1

[27] = molecular target: T27, Rsk1 (Homo sapiens, UniProt Q15418)
T27 construct: purchased Millipore, Inc. (KinaseProfiler service)
Procedure: as §1

[28] = molecular target: T28, TBK1 (Homo sapiens, UniProt Q9UHD2)
T28 construct: purchased Millipore, Inc. (KinaseProfiler service)
Procedure: as §1

[29] = molecular target: T29, CK1delta (Homo sapiens, UniProt P48730)
T29 construct: purchased Millipore, Inc. (KinaseProfiler service)
Procedure: as §1

[30] = molecular target: T30, PKCbetaII (Homo sapiens, UniProt P05771)
T30 construct: purchased Millipore, Inc. (KinaseProfiler service)
Procedure: as §1

[31] = molecular target: T31, Ron (Homo sapiens, UniProt Q04912)
T31 construct: purchased Millipore, Inc. (KinaseProfiler service)
Procedure: as §1

[32] = molecular target: T32, VRK2 (Homo sapiens, UniProt Q86Y07)
T32 construct: purchased Millipore, Inc. (KinaseProfiler service)
Procedure: as §1

[33] = molecular target: T33, IKKbeta (Homo sapiens, UniProt O14920)
T33 construct: purchased Millipore, Inc. (KinaseProfiler service)
Procedure: as §1

[34] = molecular target: T34, DYRK2 (Homo sapiens, UniProt Q92630)
T34 construct: purchased Millipore, Inc. (KinaseProfiler service)
Procedure: as §1

[35] = molecular target: T35, CHK1 (Homo sapiens, UniProt O14757)
T35 construct: purchased Millipore, Inc. (KinaseProfiler service)
Procedure: as §1

[36] = molecular target: T36, EphA2 (Homo sapiens, UniProt P29317)
T36 construct: purchased Millipore, Inc. (KinaseProfiler service)
Procedure: as §1

[37] = molecular target: T37, MRCKalpha (Homo sapiens, UniProt Q5VT25)
T37 construct: purchased Millipore, Inc. (KinaseProfiler service)
Procedure: as §1

[38] = molecular target: T38, GSK3beta (Homo sapiens, UniProt P49841)
T38 construct: purchased Millipore, Inc. (KinaseProfiler service)
Procedure: as §1

[39] = molecular target: T39, FAK (Homo sapiens, UniProt Q05397)
T39 construct: purchased Millipore, Inc. (KinaseProfiler service)
Procedure: as §1

[40] = molecular target: T40, PrKX (Homo sapiens, UniProt P51817)
T40 construct: purchased Millipore, Inc. (KinaseProfiler service)
Procedure: as §1

[41] = molecular target: T41, PKCbetaI (Homo sapiens, UniProt P05771)
T41 construct: purchased Millipore, Inc. (KinaseProfiler service)
Procedure: as §1

T12 sequence (Q96PF2 whole entry): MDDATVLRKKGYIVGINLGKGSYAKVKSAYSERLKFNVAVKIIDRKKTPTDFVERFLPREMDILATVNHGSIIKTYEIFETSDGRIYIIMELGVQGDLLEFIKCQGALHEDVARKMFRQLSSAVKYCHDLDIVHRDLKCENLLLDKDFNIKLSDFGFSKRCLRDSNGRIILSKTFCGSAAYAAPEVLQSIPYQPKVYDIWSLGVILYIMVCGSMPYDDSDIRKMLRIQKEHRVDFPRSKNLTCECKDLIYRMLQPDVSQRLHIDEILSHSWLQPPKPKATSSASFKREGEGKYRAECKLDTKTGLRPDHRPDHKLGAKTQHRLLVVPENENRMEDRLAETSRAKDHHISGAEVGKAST
T13 sequence (P51812 whole entry): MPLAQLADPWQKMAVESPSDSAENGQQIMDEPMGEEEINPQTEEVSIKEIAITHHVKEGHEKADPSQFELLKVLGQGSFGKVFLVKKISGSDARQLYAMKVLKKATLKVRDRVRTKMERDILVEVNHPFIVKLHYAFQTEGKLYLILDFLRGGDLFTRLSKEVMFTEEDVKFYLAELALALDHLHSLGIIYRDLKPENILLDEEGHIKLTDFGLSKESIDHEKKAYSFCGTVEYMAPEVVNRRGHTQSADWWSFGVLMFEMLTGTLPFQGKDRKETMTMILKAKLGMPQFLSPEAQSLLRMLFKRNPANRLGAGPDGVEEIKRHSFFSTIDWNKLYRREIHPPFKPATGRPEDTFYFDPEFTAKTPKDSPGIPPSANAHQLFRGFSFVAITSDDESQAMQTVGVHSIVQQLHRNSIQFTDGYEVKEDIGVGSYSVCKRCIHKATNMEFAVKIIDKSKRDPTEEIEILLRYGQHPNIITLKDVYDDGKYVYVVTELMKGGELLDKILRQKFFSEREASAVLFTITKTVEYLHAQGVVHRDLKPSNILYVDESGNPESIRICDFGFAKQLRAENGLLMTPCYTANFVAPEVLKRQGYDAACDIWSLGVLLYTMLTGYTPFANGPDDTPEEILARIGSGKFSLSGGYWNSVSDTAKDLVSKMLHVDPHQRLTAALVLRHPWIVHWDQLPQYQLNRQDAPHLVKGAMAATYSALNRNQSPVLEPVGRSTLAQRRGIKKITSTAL
T28 sequence (Q9UHD2 whole entry): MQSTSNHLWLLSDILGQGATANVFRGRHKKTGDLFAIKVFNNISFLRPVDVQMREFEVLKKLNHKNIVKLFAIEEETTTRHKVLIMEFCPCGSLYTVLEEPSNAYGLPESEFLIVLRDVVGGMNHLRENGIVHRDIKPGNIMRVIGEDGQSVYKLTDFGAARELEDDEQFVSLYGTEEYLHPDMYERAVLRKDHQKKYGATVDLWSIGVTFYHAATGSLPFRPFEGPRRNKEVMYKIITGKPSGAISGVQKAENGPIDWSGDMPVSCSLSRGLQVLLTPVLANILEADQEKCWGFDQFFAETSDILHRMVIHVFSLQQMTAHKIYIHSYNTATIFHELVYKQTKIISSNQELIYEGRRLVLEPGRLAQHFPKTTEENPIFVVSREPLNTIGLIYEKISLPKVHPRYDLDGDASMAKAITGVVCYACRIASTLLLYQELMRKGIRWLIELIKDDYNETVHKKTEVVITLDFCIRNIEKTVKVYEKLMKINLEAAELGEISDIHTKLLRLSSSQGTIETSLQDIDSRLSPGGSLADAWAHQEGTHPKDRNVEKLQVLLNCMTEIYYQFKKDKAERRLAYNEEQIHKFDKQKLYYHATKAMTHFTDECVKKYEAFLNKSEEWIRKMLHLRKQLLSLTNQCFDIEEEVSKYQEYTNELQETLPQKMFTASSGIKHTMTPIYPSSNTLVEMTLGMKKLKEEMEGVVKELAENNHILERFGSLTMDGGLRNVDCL
T41 sequence (P05771 whole entry): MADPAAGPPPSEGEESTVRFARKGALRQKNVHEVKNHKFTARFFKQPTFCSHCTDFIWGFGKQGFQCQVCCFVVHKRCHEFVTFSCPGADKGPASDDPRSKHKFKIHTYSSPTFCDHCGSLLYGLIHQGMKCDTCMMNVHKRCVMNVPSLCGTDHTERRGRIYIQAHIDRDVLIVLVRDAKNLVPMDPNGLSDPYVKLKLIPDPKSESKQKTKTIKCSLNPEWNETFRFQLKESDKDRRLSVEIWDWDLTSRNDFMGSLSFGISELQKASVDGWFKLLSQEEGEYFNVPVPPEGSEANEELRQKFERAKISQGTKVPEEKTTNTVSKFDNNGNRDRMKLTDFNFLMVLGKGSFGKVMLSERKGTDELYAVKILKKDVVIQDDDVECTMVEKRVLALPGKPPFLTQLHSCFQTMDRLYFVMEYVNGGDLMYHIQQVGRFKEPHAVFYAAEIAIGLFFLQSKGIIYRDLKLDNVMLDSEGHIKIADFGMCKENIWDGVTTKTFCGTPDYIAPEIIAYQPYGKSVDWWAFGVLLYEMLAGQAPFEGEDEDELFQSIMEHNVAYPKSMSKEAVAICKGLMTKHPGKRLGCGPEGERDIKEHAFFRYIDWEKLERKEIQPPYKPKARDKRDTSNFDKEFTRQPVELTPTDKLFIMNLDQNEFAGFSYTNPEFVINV
T33 sequence (O14920 whole entry): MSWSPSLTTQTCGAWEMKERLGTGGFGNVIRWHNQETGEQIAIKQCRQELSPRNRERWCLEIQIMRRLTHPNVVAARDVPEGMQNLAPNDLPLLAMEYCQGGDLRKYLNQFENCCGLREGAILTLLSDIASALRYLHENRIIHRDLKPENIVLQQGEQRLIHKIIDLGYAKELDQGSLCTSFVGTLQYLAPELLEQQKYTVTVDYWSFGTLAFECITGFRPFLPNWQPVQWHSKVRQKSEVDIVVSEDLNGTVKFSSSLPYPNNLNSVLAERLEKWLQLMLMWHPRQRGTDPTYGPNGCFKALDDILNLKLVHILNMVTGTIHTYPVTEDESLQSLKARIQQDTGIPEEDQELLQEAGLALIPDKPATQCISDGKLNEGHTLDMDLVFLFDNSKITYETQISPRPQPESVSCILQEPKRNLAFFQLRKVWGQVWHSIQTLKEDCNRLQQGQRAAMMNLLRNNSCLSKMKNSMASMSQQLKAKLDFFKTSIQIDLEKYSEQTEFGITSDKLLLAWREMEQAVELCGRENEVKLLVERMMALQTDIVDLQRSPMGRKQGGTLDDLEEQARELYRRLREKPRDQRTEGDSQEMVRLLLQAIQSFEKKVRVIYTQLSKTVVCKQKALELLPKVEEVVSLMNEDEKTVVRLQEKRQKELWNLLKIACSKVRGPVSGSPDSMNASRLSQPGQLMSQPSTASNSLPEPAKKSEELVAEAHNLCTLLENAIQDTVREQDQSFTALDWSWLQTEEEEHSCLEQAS
T11 sequence (P53779 whole entry): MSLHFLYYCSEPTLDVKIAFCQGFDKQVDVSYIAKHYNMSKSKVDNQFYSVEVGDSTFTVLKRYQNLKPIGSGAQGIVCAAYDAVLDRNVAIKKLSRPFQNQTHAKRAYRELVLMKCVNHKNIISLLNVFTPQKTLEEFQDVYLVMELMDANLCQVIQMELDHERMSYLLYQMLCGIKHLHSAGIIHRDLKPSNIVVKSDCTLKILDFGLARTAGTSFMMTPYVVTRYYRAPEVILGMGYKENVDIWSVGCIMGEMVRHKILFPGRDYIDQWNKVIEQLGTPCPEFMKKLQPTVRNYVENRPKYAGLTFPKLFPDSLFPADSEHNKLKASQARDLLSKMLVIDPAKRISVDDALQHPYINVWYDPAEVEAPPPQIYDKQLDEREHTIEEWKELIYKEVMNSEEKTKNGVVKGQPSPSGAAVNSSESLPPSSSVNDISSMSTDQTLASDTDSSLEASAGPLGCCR
T38 sequence (P49841 whole entry): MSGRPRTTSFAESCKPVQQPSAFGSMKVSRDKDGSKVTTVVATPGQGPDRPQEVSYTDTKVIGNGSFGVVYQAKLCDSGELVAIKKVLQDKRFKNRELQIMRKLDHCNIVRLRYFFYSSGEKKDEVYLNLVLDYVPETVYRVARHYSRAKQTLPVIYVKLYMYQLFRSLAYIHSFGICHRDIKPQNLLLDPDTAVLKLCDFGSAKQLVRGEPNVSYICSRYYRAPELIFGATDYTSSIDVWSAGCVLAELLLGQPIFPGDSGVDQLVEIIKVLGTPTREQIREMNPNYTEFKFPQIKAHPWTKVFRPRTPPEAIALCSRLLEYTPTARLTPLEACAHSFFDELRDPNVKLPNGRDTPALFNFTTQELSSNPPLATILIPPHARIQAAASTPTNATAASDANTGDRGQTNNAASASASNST
T30 sequence (P05771 1-673 isoform P05771-2): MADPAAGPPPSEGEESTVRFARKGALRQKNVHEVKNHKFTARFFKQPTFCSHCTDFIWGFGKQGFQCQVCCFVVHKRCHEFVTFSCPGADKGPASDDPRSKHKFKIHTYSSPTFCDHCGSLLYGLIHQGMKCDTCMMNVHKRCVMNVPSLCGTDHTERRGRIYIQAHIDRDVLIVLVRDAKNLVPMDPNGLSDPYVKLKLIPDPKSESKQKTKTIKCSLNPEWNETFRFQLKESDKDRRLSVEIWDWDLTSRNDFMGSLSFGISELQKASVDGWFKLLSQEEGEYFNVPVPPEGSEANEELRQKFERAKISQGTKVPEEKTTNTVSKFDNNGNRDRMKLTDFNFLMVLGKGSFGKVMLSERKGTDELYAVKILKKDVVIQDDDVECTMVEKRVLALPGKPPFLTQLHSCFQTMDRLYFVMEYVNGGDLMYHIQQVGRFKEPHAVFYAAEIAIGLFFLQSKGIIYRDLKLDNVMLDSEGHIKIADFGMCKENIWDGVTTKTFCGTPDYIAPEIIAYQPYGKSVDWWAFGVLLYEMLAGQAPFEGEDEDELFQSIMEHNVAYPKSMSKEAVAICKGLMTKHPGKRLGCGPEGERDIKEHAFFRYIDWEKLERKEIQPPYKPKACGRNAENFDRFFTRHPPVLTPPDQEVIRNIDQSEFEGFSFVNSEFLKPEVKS

Cc1c(-c2cnn(C)c2)nn(-c2ccccc2)c1NC(=O)Nc1sc(C(F)(F)F)nc1-c1ccccc1 [Example 2, 1-(1′,4-dimethyl-1-phenyl-1H,1′H-[3,4′-bipyrazol]-5-yl)-3-(4-phenyl-2-(trifluoromethyl)thiazol-5-yl)urea]
Avg POC [1]: 116 POC
Avg POC [2]: 105 POC
Avg POC [3]: 119 POC
Avg POC [4]: 105.5 POC
Avg POC [5]: 104 POC
Avg POC [6]: 126 POC
Avg POC [7]: 109 POC
Avg POC [8]: 98 POC
Avg POC [9]: 135 POC
Avg POC [10]: 122.5 POC
Avg POC [11]: 120 POC
Avg POC [12]: 142.5 POC
Avg POC [13]: 131 POC
Avg POC [14]: 113.5 POC
Avg POC [15]: 151 POC
Avg POC [16]: 95.5 POC
Avg POC [17]: 127.5 POC
Avg POC [18]: 99 POC
Avg POC [19]: 95.5 POC
Avg POC [20]: 131.5 POC
Avg POC [21]: 133 POC
Avg POC [22]: 106 POC
Avg POC [23]: 107.5 POC
Avg POC [24]: 98.5 POC
Avg POC [25]: 113 POC
Avg POC [26]: 109 POC
Avg POC [27]: 123.5 POC
Avg POC [28]: 100.5 POC
Avg POC [29]: 117.5 POC
Avg POC [30]: 95 POC
Avg POC [31]: 110.5 POC
Avg POC [32]: 91.5 POC
Avg POC [33]: 112 POC
Avg POC [34]: 88 POC
Avg POC [35]: 126.5 POC
Avg POC [36]: 127 POC
Avg POC [37]: 147.5 POC
Avg POC [38]: 127.5 POC
Avg POC [39]: 106 POC
Avg POC [40]: 122 POC
Avg POC [41]: 102 POC
